# What was measured:
# D(3) dopamine receptor = D(3) dopamine receptor (Homo sapiens, UniProt P35462)
# [1] = target: T1, Alpha-2C adrenergic receptor (Homo sapiens, UniProt P18825); format: functional
# T1 sequence (P18825 whole entry): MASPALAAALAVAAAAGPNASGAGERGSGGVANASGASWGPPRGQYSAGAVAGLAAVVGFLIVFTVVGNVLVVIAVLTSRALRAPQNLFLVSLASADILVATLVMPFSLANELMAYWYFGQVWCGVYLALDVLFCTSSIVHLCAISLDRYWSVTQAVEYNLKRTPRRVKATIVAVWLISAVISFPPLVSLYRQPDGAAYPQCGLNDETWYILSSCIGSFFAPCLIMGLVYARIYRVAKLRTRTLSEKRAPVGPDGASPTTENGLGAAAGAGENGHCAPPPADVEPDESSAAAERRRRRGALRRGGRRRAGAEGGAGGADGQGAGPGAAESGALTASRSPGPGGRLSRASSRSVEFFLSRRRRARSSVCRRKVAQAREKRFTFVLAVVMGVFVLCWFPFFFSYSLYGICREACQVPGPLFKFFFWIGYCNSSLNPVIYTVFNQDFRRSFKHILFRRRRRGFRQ
# [2] = target: T2, Muscarinic acetylcholine receptor M1 (Homo sapiens, UniProt P11229); format: functional
# T2 sequence (P11229 whole entry): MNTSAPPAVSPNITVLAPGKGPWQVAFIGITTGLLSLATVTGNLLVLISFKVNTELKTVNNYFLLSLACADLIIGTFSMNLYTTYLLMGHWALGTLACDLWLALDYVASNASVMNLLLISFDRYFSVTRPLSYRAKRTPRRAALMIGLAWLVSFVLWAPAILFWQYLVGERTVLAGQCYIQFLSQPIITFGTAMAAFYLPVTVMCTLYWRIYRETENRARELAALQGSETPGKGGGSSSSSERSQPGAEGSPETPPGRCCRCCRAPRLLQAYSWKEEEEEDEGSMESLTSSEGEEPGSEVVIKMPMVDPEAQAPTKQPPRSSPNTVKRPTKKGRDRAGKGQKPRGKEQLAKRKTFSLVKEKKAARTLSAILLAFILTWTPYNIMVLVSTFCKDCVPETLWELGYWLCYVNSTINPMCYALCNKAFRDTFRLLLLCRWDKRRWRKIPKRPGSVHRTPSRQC
# [3] = target: T3, Muscarinic acetylcholine receptor M2 (Homo sapiens, UniProt P08172); format: functional, cell-based
# T3 sequence (P08172 whole entry): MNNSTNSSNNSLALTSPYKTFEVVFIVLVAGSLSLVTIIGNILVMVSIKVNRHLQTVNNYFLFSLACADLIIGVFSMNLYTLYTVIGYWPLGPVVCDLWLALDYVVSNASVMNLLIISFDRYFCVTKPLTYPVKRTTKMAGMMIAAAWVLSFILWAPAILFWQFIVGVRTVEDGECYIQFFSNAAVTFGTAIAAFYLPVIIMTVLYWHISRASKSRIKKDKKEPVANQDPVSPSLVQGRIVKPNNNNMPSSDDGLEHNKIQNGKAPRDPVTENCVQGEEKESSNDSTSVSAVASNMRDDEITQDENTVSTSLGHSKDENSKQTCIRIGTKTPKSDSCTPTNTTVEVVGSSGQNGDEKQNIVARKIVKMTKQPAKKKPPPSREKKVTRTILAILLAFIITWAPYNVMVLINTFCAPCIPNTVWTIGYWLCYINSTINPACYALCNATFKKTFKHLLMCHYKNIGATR
# [4] = target: 5-hydroxytryptamine receptor 2B (Homo sapiens, UniProt P41595); format: functional, cell-based
# Motilin receptor = Motilin receptor (Homo sapiens, UniProt O43193)
# [5] = target: T4, Gastrin/cholecystokinin type B receptor (Homo sapiens, UniProt P32239)
# T4 sequence (P32239 whole entry): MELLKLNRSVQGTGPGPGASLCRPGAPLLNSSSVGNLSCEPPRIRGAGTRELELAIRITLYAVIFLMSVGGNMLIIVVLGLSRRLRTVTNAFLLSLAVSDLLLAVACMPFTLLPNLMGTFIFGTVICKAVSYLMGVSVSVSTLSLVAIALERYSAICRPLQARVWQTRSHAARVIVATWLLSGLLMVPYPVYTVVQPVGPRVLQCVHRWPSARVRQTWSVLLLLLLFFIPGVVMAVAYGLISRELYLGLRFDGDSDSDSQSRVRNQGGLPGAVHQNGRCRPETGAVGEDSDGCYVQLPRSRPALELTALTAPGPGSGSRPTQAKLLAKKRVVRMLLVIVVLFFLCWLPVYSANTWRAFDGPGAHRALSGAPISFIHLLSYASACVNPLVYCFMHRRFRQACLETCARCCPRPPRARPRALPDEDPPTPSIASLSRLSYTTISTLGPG
# [6] = target: Sodium-dependent dopamine transporter (Homo sapiens, UniProt Q01959)
# Cannabinoid receptor 1 = Cannabinoid receptor 1 (Homo sapiens, UniProt P21554); format: functional, cell-based
# [7] = target: Sodium-dependent serotonin transporter (Homo sapiens, UniProt P31645)
# [8] = target: Growth hormone secretagogue receptor type 1 (Homo sapiens, UniProt Q92847)
# [9] = target: T5, 5-hydroxytryptamine receptor 2C (Homo sapiens, UniProt P28335)
# T5 sequence (P28335 whole entry): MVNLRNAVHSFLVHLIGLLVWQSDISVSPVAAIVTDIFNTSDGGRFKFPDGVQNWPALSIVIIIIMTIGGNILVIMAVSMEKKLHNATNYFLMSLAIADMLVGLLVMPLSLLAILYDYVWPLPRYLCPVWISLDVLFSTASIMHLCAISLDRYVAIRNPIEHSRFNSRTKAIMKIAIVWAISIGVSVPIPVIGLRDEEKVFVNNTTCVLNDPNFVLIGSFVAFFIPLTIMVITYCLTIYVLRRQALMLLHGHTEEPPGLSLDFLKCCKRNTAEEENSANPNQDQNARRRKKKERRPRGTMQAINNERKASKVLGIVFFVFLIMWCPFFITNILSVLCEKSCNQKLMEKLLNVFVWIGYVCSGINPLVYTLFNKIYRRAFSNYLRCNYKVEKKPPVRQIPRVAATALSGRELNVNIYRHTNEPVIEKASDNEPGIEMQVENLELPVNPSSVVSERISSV
# [10] = target: Gamma-aminobutyric acid receptor subunit alpha-1 (Rattus norvegicus, UniProt P62813)
# [11] = target: 5-hydroxytryptamine receptor 2A (Homo sapiens, UniProt P28223); format: functional, cell-based
# Adenosine receptor A2a = Adenosine receptor A2a (Homo sapiens, UniProt P29274)
# Note: assay procedure not described here.
# Chain of Gamma-aminobutyric acid receptor subunit alpha-1 (P62813 whole entry): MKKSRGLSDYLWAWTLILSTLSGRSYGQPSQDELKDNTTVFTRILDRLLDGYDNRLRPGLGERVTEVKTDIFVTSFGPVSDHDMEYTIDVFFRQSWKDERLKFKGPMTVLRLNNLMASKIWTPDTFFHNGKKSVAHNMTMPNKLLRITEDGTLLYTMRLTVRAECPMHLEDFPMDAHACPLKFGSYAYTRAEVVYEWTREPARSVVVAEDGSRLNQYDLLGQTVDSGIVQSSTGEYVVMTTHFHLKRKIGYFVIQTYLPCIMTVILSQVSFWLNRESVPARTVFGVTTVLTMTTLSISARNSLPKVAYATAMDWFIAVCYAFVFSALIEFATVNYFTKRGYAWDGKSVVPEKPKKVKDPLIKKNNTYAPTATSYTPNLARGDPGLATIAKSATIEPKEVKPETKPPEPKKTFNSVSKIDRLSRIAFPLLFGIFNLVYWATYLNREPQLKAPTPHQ
# Chain of Motilin receptor (O43193 whole entry): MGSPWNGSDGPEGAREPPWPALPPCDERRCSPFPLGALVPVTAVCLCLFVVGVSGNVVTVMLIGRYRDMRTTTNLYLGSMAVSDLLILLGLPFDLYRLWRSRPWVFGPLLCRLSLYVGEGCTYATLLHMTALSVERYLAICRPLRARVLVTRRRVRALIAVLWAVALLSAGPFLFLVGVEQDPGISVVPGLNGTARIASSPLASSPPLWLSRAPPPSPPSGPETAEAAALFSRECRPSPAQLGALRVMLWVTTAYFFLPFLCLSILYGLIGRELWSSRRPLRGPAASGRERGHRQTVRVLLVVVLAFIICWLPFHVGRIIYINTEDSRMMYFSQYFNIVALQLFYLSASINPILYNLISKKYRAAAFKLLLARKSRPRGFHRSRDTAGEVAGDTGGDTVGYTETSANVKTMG
# Chain of 5-hydroxytryptamine receptor 2B (P41595 whole entry): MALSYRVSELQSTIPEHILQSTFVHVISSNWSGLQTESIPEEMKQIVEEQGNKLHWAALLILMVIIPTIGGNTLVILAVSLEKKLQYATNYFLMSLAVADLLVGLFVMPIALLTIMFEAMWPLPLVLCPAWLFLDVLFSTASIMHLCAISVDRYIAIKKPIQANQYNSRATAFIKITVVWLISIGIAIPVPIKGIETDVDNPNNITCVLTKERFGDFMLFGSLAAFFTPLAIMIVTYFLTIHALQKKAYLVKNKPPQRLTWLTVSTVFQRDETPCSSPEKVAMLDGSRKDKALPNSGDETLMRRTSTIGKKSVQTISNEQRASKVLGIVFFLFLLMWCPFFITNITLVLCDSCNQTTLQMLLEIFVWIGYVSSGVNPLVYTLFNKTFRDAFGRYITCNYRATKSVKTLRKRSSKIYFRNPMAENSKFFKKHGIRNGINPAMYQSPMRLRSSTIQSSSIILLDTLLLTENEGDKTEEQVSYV
# Chain of 5-hydroxytryptamine receptor 2A (P28223 whole entry): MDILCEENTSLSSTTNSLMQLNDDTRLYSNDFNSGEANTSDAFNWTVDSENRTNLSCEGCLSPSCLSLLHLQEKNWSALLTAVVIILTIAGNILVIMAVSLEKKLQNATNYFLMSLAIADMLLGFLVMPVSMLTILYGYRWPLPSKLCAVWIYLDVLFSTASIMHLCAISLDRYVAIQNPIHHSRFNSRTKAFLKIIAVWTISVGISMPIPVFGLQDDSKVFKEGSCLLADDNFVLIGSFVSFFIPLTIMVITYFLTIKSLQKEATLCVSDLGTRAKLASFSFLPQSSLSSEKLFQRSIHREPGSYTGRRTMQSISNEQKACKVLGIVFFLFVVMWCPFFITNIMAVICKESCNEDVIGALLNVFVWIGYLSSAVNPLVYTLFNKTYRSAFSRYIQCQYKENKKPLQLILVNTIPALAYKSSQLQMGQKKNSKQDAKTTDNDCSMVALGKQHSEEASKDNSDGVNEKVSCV
# Chain of Growth hormone secretagogue receptor type 1 (Q92847 whole entry): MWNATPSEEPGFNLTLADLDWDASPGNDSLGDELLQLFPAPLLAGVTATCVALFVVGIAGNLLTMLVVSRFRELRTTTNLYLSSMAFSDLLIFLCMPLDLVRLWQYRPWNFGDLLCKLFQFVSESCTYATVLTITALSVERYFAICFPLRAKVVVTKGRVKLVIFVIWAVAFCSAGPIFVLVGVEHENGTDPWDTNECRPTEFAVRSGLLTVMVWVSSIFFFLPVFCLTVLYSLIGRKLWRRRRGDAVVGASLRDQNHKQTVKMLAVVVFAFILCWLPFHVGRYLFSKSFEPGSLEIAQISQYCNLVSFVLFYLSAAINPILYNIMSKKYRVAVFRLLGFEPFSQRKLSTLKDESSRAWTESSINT
# Chain of D(3) dopamine receptor (P35462 whole entry): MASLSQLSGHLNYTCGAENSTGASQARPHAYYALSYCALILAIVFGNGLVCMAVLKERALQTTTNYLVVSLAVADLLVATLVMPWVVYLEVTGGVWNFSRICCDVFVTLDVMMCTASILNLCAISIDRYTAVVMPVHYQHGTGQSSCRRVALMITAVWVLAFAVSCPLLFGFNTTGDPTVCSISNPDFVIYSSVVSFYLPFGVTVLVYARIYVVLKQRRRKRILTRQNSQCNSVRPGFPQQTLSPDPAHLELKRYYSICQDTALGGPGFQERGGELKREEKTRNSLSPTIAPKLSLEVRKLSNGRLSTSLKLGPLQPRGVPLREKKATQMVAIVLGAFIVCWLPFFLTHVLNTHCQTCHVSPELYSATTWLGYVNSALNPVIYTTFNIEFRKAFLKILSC
# Chain of Sodium-dependent dopamine transporter (Q01959 whole entry): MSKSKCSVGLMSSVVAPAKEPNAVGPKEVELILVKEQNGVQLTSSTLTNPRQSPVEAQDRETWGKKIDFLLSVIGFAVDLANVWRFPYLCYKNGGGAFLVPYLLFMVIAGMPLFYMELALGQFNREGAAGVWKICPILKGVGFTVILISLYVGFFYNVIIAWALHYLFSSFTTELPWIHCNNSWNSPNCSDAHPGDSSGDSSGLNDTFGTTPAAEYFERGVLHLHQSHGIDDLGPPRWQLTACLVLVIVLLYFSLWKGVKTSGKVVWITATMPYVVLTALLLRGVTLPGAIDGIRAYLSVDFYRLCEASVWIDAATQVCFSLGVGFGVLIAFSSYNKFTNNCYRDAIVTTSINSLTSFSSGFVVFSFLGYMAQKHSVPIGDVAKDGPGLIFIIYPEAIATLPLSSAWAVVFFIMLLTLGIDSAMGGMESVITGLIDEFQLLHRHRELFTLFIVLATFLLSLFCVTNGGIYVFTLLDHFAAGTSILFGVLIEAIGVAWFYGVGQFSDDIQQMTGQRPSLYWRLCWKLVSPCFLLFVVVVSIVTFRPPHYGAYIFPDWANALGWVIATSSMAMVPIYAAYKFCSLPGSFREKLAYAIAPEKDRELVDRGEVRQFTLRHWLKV
# Chain of Cannabinoid receptor 1 (P21554 whole entry): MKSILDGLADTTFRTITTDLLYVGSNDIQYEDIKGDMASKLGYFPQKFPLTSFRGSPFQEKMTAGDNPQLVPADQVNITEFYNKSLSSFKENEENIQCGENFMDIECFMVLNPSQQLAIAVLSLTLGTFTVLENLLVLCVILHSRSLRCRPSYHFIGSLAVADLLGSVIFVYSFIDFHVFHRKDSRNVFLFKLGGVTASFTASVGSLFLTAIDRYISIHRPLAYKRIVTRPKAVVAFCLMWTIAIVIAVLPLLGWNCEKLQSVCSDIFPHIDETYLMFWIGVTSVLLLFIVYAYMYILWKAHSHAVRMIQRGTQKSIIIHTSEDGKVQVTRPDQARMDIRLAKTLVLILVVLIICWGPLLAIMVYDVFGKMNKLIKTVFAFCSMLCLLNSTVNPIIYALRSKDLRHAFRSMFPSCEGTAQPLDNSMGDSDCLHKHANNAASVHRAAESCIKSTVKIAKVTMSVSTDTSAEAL
# Chain of Adenosine receptor A2a (P29274 whole entry): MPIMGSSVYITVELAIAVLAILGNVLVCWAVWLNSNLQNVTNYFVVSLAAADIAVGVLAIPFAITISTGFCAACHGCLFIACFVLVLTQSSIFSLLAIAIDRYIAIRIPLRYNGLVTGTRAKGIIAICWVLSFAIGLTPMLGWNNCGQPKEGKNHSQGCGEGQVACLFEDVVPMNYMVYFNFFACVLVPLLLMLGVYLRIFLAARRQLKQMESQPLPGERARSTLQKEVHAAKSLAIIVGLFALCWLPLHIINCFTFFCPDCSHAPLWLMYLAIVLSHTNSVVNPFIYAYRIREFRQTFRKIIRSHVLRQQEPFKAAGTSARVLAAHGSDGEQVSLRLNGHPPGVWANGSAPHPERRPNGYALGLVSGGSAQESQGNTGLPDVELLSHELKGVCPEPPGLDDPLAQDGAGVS
# Chain of Sodium-dependent serotonin transporter (P31645 whole entry): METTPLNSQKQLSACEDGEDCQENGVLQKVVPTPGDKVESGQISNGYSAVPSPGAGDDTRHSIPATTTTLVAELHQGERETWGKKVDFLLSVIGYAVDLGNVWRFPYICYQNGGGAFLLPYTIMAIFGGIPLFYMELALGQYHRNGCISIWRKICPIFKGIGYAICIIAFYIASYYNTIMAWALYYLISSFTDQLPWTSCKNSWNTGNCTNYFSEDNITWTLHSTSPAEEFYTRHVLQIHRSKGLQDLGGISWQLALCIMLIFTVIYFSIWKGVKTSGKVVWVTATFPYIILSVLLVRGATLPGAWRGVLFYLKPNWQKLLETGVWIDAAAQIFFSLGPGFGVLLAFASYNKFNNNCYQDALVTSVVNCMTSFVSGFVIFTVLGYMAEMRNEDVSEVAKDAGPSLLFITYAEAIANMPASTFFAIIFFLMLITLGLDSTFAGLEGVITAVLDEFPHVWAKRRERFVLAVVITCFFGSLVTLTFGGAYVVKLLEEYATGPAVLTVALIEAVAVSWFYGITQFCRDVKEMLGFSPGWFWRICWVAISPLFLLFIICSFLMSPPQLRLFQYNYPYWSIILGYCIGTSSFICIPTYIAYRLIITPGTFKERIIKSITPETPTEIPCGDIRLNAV
Structure (SMILES),AC50 (D(3) dopamine receptor) [µM],AC50 [1] [µM],AC50 [2] [µM],AC50 [3] [µM],AC50 [4] [µM],AC50 (Motilin receptor) [µM],AC50 [5] [µM],AC50 [6] [µM],AC50 (Cannabinoid receptor 1) [µM],AC50 [7] [µM],AC50 [8] [µM],AC50 [9] [µM],AC50 [10] [µM],AC50 [11] [µM],AC50 (Adenosine receptor A2a) [µM]
COc1ccc(-c2ccc3cc(C(=O)O)ccc3c2)cc1C12CC3CC(CC(C3)C1)C2,> 30,> 30,> 30,> 30,> 30,> 30,> 30,> 30,> 30,> 30,> 30,> 30,> 30,> 30,> 30
COc1ccccc1N1CCN(CCCNc2cc(=O)n(C)c(=O)n2C)CC1,1.4,,> 30,> 30,> 30,> 30,> 30,> 30,> 30,9.5,> 30,> 30,> 30,> 30,> 30
CC(C)(C)C(=O)Oc1ccc(S(=O)(=O)Nc2ccccc2C(=O)NCC(=O)O)cc1,> 30,> 30,> 30,> 30,> 30,> 30,> 30,> 30,> 30,> 10,> 30,> 30,> 30,> 30,> 30
CO/N=C(\C(=O)N[C@@H]1C(=O)N2C(C(=O)O)=C(CSc3nnnn3C)CS[C@H]12)c1csc(N)n1 [CEFMENOXIME],,> 30,> 30,> 30,> 30,> 30,> 30,> 30,> 30,> 30,> 30,,,> 30,> 30
CCN1CCN(C(=O)N[C@@H](C(=O)N[C@@H]2C(=O)N3C(C(=O)O)=C(CSc4nnnn4C)CS[C@H]23)c2ccc(O)cc2)C(=O)C1=O [CEFOPERAZONE],> 30,> 30,> 30,> 30,> 30,> 30,> 30,> 30,> 30,> 30,> 30,> 30,,> 30,> 30
Nc1nc(/C(=C/CC(=O)O)C(=O)N[C@@H]2C(=O)N3C(C(=O)O)=CCS[C@H]23)cs1 [CEFTIBUTEN],> 30,> 30,> 30,> 30,> 30,> 30,> 30,> 30,,> 30,> 30,> 30,> 30,> 30,> 30
CCCCCCOc1ccccc1C(N)=O [EXALAMIDE],> 30,> 30,> 30,,> 30,> 30,> 30,14,> 30,> 30,> 30,> 30,> 30,> 30,> 30
CC(C(=O)O)c1ccc(N2Cc3ccccc3C2=O)cc1 (stereo not drawn) [INDOPROFEN],> 30,> 30,> 30,> 30,> 30,> 30,> 30,> 30,,> 30,> 30,> 30,> 30,> 30,> 30
COC(=O)C1=C(C)NC(C)=C(C(=O)OC(C)(C)CN(C)CCC(c2ccccc2)c2ccccc2)C1c1cccc([N+](=O)[O-])c1 (stereo not drawn) [LERCANIDIPINE],> 30,> 30,> 30,> 30,> 30,12.6,> 30,35.7,,> 30,> 30,> 30,> 30,> 30,> 30
CC(Oc1c(Cl)cccc1Cl)C1=NCCN1 (stereo not drawn) [LOFEXIDINE],> 30,0.42,> 30,> 30,> 30,> 30,> 30,> 30,,11,> 30,> 30,> 30,> 30,> 30
CC(C)=CCC/C(C)=C/C=C/C(C)=C/C=C/C(C)=C/C=C/C=C(C)/C=C/C=C(C)/C=C/C=C(\C)CCC=C(C)C [LYCOPENE],> 30,> 30,> 30,> 30,> 30,> 30,> 30,> 30,,> 30,> 30,> 30,> 30,> 30,> 30
COc1ccc2c3c1O[C@H]1C(=O)CC[C@@]4(O)[C@@H](C2)N(C)CC[C@]314 [OXYCODONE],> 30,,> 30,> 30,> 30,> 30,> 30,> 30,> 30,> 30,> 30,> 30,> 30,> 30,> 30

# Source: ChEMBL document CHEMBL5291721, “A preclinical secondary pharmacology resource illuminates target-adverse drug reaction associations of marketed drugs” (Nat Commun, 2023)
